Patent publication US9062050B2, “Inhibitor of JAK1 and JAK2” (Eli Lilly and Company, priority 2012, dated 2015)
pIC50: −log10 of the molar value.

How the values were obtained:
JAK1 = target: T1, JAK1 (Homo sapiens, UniProt P23458); assay: JAK LanthaScreen Kinase Assay (TR-FRET), JAK1; type: biochemical; details: enzyme assay, 20.0 micromolar ATP, n=3; read-out: IC50 against JAK1
T1 construct: purchased Life Technologies #PV4844
Source text: The JAK LanthaScreen™ Kinase Assay (Life Technologies, #PV4844) is used to determine compound IC50 values against the JAK1, JAK2, and JAK3 kinases. This kinase assay is a Time Resolved Fluorescence Resonance Energy Transfer (TR-FRET) assay format that uses long-lifetime terbium (Tb) labeled antibody as the donor species and Green Fluorescent Protein-Signal Transducers and Activators of Transcription (GFP-STAT1) as the acceptor species.
The TR-FRET ratio is used to monitor JAK1, JAK2, or JAK3 activity where an increase in phosphorylation of the GFP-STAT1 results in an increase in the TR-FRET ratio. Perform the kinase reaction using a 12.5 microliter reaction volume in shallow black 384-well Proxiplate (PerkinElmer, #6008260). […] Incubate at room temperature for 90 minutes, and read in an EnVision plate reader (PerkinElmer, #2104-0010) with 340 nm wavelength excitation filter and emission filters of 520 nm and 495 nm wavelengths. The ratio is derived from the emission wavelength for the GFP-STAT1 which is measured at 520 nanometer versus the emission at 495 nanometer for the Tb-anti-pSTAT1[pTyr701]. Derive the IC50 value for the compound using percent inhibition data, which is calculated from the reaction data relative to on-plate controls (active enzyme versus 2.0 micromolar control-inhibited enzyme). […]

phosphorylation of STAT3 = assay: SUM-159-MSD-pSTAT3 cell-based assay; details: SUM159; Sum-159 breast cancer cells, human IL-6 stimulated; read-out: IC50, inhibits the phosphorylation of STAT3
Description: The SUM-159-MSD-pSTAT3 cell-based assay is used to examine the potency of compounds at blocking STAT3 phosphorylation in breast cancer cells. Sum-159 cells (Asterand) are grown and maintained in HAM's F-12 medium (Gibco 11765-054) with 5% FBS, insulin (5 microgram/mL) and hydrocortisone (1 μg/ml). Cells are collected, counted, plated at 4×10^4 cells/well in 96-well plates, and cultured for overnight at 37° C. with 5% CO2. Culture medium is then removed and replaced with F-12-medium containing either vehicle (DMSO) alone or 2× final concentrations of compounds across a range from 0-20 μM at 1:3 dilutions (10 concentration points). After incubation for five additional hours, medium is removed and cells are treated with 100 microliters of 2× human IL-6 (20 ng/mL diluted in F-12 complete medium) and incubated for an additional 20 minutes at 37° C. in 5% CO2. […] The 96-well plates are sealed and then mixed for 2 minutes on an orbital shaker at room temperature, and then immediately frozen at −80° C. overnight. pSTAT3 is detected with the use of the MA6000 MSD Whole Cell Lysate Kit for Phospho-STAT-3 (Tyr 705) (Meso Scale Diagnostics, #K150DID-2) as described above. Plates are read by using a MSD plate reader. Data are analyzed using Graph Pad program.

T1 sequence (P23458 whole entry): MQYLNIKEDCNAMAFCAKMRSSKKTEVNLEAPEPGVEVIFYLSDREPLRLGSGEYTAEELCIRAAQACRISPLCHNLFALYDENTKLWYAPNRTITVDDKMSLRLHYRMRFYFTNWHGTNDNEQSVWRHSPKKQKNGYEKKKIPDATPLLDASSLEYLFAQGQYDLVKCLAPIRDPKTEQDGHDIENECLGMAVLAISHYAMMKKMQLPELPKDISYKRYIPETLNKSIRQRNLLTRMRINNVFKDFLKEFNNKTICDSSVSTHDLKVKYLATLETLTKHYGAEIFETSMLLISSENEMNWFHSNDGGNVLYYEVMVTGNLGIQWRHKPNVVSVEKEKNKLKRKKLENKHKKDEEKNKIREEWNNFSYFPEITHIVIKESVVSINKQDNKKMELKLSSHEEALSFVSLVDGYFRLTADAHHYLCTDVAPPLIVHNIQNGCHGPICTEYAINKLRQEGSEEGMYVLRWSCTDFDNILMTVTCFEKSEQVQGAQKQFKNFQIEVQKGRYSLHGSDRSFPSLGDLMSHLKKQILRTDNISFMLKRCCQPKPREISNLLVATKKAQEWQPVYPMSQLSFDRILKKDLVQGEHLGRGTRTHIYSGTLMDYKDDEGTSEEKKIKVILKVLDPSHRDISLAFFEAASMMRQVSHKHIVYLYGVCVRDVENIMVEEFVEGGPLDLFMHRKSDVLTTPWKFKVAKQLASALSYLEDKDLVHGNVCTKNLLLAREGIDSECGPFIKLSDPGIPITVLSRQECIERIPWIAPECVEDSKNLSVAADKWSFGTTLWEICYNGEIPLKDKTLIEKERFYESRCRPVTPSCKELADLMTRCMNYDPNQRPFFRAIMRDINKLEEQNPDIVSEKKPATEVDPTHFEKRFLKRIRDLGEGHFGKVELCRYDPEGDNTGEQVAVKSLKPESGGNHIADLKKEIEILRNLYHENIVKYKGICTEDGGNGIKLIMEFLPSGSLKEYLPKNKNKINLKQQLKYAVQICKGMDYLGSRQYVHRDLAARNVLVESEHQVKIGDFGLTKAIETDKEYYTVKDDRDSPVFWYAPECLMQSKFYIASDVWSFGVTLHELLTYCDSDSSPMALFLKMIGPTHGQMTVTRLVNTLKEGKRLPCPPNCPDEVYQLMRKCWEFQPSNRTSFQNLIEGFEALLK

Cc1cc(Nc2ccc3ncn([C@@H]4CCc5ccc(F)cc54)c3n2)[nH]n1.Cl.Cl [Example 1, 3-[(1R)-6-fluoro-2,3-dihydro-1H-inden-1-yl]-N-(3-methyl-1H-pyrazol-5-yl)-3H-imidazo[4,5-b]pyridin-5-amine dihydrochloride]
pIC50 (JAK1): 8.77 | pIC50 (phosphorylation of STAT3): 7.68
